Test results as given in article PMC9954146, “Anti-Leukaemic Activity of Rilpivirine Is Mediated by Aurora A Kinase Inhibition” (Cancers, 2023).

What was measured:
Assay in all cases: Kinase panel
Type in all cases: biochemical
Details in all cases: read-out: % Residual Activity
ACTR2(h) = target: T1, ACTR2(h) (Homo sapiens, UniProt P27037)
T1 construct: purchased Eurofins (KinaseProfiler)
Outline: (§1)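 Steps: profile rilpivirine against a broad kinase panel; determine IC50 by radioactive assay using ATP at the kinase-specific Km; convert IC50 to Ki by the Cheng–Prusoff relationship.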

ALK1(h) = target: T2, ALK1(h) (Homo sapiens, UniProt P37023)
T2 construct: purchased Eurofins (KinaseProfiler)
Outline: as §1

Abl (H396P) (h) = target: T3, Abl (H396P) (h) (Homo sapiens, UniProt P00519, H396P)
T3 construct: purchased Eurofins (KinaseProfiler)
Outline: as §1

Abl (Q252H) (h) = target: T4, Abl (Q252H) (h) (Homo sapiens, UniProt P00519, Q252H)
T4 construct: purchased Eurofins (KinaseProfiler)
Outline: as §1

CDK2/cyclinA(h) = target: T5, CDK2/cyclinA(h) (Homo sapiens, UniProt P24941)
T5 construct: purchased Eurofins (KinaseProfiler)
Outline: as §1

CDKL4(h) = target: T6, CDKL4(h) (Homo sapiens, UniProt Q5MAI5)
T6 construct: purchased Eurofins (KinaseProfiler)
Outline: as §1

CLIK1(h) = target: T7, CLIK1(h) (Homo sapiens, UniProt Q8TDR2)
T7 construct: purchased Eurofins (KinaseProfiler)
Outline: as §1

CLK3(h) = target: T8, CLK3(h) (Homo sapiens, UniProt P49761)
T8 construct: purchased Eurofins (KinaseProfiler)
T8 sequence (P49761 whole entry): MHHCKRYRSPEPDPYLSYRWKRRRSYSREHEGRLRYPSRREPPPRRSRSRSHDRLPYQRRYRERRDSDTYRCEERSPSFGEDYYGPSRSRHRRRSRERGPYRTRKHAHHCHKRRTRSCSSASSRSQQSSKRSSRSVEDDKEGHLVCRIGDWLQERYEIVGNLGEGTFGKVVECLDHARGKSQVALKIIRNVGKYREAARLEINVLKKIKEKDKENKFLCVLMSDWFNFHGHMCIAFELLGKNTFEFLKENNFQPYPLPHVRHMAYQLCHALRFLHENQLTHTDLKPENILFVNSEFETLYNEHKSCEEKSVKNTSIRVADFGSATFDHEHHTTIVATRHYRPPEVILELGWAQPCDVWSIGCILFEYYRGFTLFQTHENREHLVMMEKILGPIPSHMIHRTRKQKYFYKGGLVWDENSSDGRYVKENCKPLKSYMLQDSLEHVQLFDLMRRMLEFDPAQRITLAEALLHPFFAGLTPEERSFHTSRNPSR
Outline: as §1

DCAMKL1(h) = target: T9, DCAMKL1(h) (Homo sapiens, UniProt O15075)
T9 construct: purchased Eurofins (KinaseProfiler)
Outline: as §1

DDR1(h) = target: T10, DDR1(h) (Homo sapiens, UniProt Q08345)
T10 construct: purchased Eurofins (KinaseProfiler)
T10 sequence (Q08345 19-913): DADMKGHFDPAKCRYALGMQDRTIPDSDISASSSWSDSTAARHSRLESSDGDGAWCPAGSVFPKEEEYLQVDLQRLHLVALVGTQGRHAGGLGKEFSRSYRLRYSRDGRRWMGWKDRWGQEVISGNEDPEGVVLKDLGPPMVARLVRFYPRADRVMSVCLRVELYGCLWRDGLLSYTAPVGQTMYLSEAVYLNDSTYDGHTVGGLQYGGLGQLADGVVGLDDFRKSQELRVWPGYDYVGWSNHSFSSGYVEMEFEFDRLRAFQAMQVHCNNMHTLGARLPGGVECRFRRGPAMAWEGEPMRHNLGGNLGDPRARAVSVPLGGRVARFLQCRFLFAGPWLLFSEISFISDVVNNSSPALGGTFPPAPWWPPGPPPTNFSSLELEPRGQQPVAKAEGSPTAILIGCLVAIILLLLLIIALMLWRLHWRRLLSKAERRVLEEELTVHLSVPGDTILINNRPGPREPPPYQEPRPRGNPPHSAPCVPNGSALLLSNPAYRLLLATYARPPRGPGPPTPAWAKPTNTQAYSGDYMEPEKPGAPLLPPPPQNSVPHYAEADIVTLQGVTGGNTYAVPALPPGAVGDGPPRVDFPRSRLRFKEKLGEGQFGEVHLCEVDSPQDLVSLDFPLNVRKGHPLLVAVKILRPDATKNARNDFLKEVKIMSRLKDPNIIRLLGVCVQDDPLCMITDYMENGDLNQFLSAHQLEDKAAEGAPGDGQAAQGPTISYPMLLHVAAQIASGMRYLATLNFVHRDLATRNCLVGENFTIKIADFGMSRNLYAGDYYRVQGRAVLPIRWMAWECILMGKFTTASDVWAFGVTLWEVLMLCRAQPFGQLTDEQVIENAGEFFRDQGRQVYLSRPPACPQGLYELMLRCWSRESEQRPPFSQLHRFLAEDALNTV
Outline: as §1

EGFR(T790M)(h) = target: T11, EGFR(T790M)(h) (Homo sapiens, UniProt P00533, T790M)
T11 construct: purchased Eurofins (KinaseProfiler)
Outline: as §1

EphA3(h) = target: T12, EphA3(h) (Homo sapiens, UniProt P29320)
T12 construct: purchased Eurofins (KinaseProfiler)
Outline: as §1

FGFR4(h) = target: T13, FGFR4(h) (Homo sapiens, UniProt P22455)
T13 construct: purchased Eurofins (KinaseProfiler)
Outline: as §1

GRK2(h) = target: T14, GRK2(h) (Homo sapiens, UniProt P25098)
T14 construct: purchased Eurofins (KinaseProfiler)
Outline: as §1

GSK3β(h) = target: T15, GSK3β(h) (Homo sapiens, UniProt P49841)
T15 construct: purchased Eurofins (KinaseProfiler)
Outline: as §1

HIPK1(h) = target: T16, HIPK1(h) (Homo sapiens, UniProt Q86Z02)
T16 construct: purchased Eurofins (KinaseProfiler)
Outline: as §1

HIPK2(h) = target: T17, HIPK2(h) (Homo sapiens, UniProt Q9H2X6)
T17 construct: purchased Eurofins (KinaseProfiler)
Outline: as §1

IKKβ(h) = target: T18, IKKβ(h) (Homo sapiens, UniProt O14920)
T18 construct: purchased Eurofins (KinaseProfiler)
T18 sequence (O14920 whole entry): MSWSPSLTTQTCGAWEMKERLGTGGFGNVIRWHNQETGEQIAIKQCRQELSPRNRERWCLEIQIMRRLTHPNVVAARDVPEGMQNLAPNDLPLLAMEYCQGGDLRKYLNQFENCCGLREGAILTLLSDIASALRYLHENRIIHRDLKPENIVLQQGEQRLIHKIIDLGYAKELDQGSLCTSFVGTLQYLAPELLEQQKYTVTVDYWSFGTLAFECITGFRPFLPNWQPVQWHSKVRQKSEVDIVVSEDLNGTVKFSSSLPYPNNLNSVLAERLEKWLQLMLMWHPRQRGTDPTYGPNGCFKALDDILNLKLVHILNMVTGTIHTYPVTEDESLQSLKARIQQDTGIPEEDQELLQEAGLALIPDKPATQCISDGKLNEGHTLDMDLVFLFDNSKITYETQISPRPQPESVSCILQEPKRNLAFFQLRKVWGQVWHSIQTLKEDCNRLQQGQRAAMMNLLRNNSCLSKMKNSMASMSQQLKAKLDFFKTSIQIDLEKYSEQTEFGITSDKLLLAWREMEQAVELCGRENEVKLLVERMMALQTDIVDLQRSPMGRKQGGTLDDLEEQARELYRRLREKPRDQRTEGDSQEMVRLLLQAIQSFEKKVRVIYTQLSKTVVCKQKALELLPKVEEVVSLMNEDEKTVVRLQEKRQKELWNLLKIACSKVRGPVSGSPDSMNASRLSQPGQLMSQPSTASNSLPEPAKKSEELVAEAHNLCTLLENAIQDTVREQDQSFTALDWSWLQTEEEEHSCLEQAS
Outline: as §1

MRCKγ(h) = target: T19, MRCKγ(h) (Homo sapiens, UniProt Q6DT37)
T19 construct: purchased Eurofins (KinaseProfiler)
Outline: as §1

Met(h) = target: T20, Met(h) (Homo sapiens, UniProt P08581)
T20 construct: purchased Eurofins (KinaseProfiler)
Outline: as §1

NEK3(h) = target: T21, NEK3(h) (Homo sapiens, UniProt P51956)
T21 construct: purchased Eurofins (KinaseProfiler)
T21 sequence (P51956 whole entry): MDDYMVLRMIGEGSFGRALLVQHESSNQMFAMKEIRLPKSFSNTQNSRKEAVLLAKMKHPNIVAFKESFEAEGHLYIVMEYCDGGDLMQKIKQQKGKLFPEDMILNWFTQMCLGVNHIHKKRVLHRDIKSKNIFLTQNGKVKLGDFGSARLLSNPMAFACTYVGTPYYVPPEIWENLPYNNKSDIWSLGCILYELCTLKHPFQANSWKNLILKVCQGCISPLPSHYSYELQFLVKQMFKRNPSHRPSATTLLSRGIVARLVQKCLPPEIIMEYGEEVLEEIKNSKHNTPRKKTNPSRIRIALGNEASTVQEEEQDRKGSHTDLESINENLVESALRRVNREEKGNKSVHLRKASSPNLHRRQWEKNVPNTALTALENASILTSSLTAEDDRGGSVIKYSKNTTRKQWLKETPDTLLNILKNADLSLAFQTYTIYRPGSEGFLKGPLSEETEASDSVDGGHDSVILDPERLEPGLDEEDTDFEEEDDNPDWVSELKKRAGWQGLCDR
Outline: as §1

NEK4(h) = target: T22, NEK4(h) (Homo sapiens, UniProt P51957)
T22 construct: purchased Eurofins (KinaseProfiler)
Outline: as §1

PAK1(h) = target: T23, PAK1(h) (Homo sapiens, UniProt Q13153)
T23 construct: purchased Eurofins (KinaseProfiler)
Outline: as §1

[1] = target: T24, PI3 Kinase (p110a/p85a)(m) (Mus musculus, UniProt P42337)
T24 construct: purchased Eurofins (KinaseProfiler)
Outline: as §1

[2] = target: PI3 Kinase (p110aH1047R)/p85a)(h) (Homo sapiens, UniProt P42336, H1047R)
Outline: as §1

[3] = target: PI3 Kinase (p110d/p85a)(m) (Mus musculus, UniProt O35904)
Outline: as §1

PI3KC2g(h) = PI3KC2g(h) (Homo sapiens, UniProt O75747)
Outline: as §1

PIP4K2a(h) = PIP4K2a(h) (Homo sapiens, UniProt P48426)
Outline: as §1

PKCμ(h) = target: T25, PKCμ(h) (Homo sapiens, UniProt Q15139)
T25 construct: purchased Eurofins (KinaseProfiler)
Outline: as §1

PKD3(h) = target: T26, PKD3(h) (Homo sapiens, UniProt O94806)
T26 construct: purchased Eurofins (KinaseProfiler)
Outline: as §1

RIPK1(h) = target: T27, RIPK1(h) (Homo sapiens, UniProt Q13546)
T27 construct: purchased Eurofins (KinaseProfiler)
Outline: as §1

RIPK2(h) = target: T28, RIPK2(h) (Homo sapiens, UniProt O43353)
T28 construct: purchased Eurofins (KinaseProfiler)
T28 sequence (O43353 whole entry): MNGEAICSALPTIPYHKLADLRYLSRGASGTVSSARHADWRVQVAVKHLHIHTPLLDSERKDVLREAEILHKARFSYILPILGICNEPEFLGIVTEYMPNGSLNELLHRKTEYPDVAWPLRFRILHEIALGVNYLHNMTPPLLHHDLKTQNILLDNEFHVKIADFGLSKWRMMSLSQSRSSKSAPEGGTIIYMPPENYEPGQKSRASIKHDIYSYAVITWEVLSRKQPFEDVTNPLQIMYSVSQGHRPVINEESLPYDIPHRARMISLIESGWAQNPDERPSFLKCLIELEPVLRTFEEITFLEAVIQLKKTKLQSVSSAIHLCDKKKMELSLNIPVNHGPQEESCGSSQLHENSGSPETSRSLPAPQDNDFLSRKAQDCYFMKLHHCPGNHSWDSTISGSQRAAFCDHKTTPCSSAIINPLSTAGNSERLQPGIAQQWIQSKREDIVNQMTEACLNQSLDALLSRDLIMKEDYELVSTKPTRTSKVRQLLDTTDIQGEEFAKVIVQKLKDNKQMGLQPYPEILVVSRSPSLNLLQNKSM
Outline: as §1

STK32B(h) = target: T29, STK32B(h) (Homo sapiens, UniProt Q9NY57)
T29 construct: purchased Eurofins (KinaseProfiler)
Outline: as §1

TAO2(h) = target: T30, TAO2(h) (Homo sapiens, UniProt Q9UL54)
T30 construct: purchased Eurofins (KinaseProfiler)
Outline: as §1

TRB2(h) = target: T31, TRB2(h) (Homo sapiens, UniProt Q92519)
T31 construct: purchased Eurofins (KinaseProfiler)
Outline: as §1

Tie2(R849W)(h) = target: T32, Tie2(R849W)(h) (Homo sapiens, UniProt Q02763, R849W)
T32 construct: purchased Eurofins (KinaseProfiler)
T32 sequence (Q02763 23-1124 R849W): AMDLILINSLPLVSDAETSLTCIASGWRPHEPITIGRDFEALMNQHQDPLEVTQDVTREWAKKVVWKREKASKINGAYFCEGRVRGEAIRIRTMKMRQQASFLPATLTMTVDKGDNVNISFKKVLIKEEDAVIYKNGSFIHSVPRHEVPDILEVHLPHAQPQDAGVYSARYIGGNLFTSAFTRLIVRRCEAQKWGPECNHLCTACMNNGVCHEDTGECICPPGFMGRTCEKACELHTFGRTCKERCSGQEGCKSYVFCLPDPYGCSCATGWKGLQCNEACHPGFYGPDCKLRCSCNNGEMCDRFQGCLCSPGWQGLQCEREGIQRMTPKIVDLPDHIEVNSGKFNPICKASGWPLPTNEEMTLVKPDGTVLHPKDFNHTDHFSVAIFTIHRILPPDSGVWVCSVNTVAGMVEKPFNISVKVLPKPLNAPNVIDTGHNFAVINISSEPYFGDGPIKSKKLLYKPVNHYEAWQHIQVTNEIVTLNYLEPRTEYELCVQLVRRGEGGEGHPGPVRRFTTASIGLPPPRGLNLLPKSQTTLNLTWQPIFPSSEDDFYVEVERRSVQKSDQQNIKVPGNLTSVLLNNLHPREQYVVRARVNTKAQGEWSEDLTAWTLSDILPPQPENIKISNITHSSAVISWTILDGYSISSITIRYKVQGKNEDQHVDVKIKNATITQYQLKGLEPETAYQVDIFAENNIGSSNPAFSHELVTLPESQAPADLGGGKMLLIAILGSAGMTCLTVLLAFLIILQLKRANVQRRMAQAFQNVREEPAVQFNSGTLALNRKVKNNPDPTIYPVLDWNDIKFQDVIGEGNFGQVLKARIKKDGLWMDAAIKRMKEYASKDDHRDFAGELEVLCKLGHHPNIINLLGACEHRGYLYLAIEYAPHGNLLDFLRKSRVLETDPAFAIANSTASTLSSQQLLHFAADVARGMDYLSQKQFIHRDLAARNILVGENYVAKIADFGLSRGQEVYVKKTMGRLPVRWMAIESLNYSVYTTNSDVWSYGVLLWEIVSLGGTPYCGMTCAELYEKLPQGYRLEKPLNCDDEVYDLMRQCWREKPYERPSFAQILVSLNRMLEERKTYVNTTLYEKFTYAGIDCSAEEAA
Outline: as §1

TrkC(h) = target: T33, TrkC(h) (Homo sapiens, UniProt Q16288)
T33 construct: purchased Eurofins (KinaseProfiler)
Outline: as §1

p70S6K(h) = target: T34, p70S6K(h) (Homo sapiens, UniProt P23443)
T34 construct: purchased Eurofins (KinaseProfiler)
Outline: as §1

T1 sequence (P27037 20-513): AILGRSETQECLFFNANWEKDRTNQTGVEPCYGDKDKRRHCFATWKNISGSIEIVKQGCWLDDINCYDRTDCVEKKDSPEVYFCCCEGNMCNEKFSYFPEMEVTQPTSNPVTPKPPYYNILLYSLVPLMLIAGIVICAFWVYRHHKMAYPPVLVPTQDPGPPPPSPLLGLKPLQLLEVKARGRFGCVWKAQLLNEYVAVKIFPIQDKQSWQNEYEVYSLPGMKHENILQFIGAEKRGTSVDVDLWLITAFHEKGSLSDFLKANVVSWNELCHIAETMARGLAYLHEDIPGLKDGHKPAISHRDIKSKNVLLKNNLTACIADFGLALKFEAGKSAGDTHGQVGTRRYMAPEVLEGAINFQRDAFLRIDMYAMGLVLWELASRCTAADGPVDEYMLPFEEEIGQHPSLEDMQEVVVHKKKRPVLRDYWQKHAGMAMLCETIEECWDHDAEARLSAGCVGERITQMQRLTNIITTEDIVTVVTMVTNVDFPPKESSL

Cc1cc(/C=C/C#N)cc(C)c1Nc1ccnc(Nc2ccc(C#N)cc2)n1 [rilpivirine, (E)-4-((4-((4-(2-cyanoethenyl)-2,6-dimethylphenyl)amino)pyrimidin-2-yl)amino)benzonitrile]
remaining activity at 1 µM (ACTR2(h)): 91%
remaining activity at 1 µM (ALK1(h)): 84%
remaining activity at 1 µM (Abl (H396P) (h)): 71%
remaining activity at 1 µM (Abl (Q252H) (h)): 94%
remaining activity at 1 µM (CDK2/cyclinA(h)): 87%
remaining activity at 1 µM (CDKL4(h)): 74%
remaining activity at 1 µM (CLIK1(h)): 85%
remaining activity at 1 µM (CLK3(h)): 93%
remaining activity at 1 µM (DCAMKL1(h)): 91%
remaining activity at 1 µM (DDR1(h)): 46%
remaining activity at 1 µM (EGFR(T790M)(h)): 79%
remaining activity at 1 µM (EphA3(h)): 86%
remaining activity at 1 µM (FGFR4(h)): 121%
remaining activity at 1 µM (GRK2(h)): 81%
remaining activity at 1 µM (GSK3β(h)): 84%
remaining activity at 1 µM (HIPK1(h)): 97%
remaining activity at 1 µM (HIPK2(h)): 85%
remaining activity at 1 µM (IKKβ(h)): 95%
remaining activity at 1 µM (MRCKγ(h)): 90%
remaining activity at 1 µM (Met(h)): 80%
remaining activity at 1 µM (NEK3(h)): 91%
remaining activity at 1 µM (NEK4(h)): 97%
remaining activity at 1 µM (PAK1(h)): 92%
remaining activity at 1 µM [1]: 100%
remaining activity at 1 µM [2]: 93%
remaining activity at 1 µM [3]: 99%
remaining activity at 1 µM (PI3KC2g(h)): 82%
remaining activity at 1 µM (PIP4K2a(h)): 103%
remaining activity at 1 µM (PKCμ(h)): 98%
remaining activity at 1 µM (PKD3(h)): 76%
remaining activity at 1 µM (RIPK1(h)): 91%
remaining activity at 1 µM (RIPK2(h)): 45%
remaining activity at 1 µM (STK32B(h)): 99%
remaining activity at 1 µM (TAO2(h)): 59%
remaining activity at 1 µM (TRB2(h)): 65%
remaining activity at 1 µM (Tie2(R849W)(h)): 86%
remaining activity at 1 µM (TrkC(h)): 91%
remaining activity at 1 µM (p70S6K(h)): 108%
